Measured values: patent US20120077802A1 (SUNOVION PHARMACEUTICALS INC., priority 2009, published 2012)
Like-named read-outs stand apart in the source and are kept apart here.

What was measured:
[1] = target: T1, human histamine H3 receptor (Homo sapiens, UniProt Q9Y5N1); assay: H3 GTPγS assay (SPA method), histamine H3 in vitro assay; type: biochemical; conditions: GTPγ[35S] SPA, membranes of cells expressing human H3 receptor; in one embodiment HCl salts tested; read-out: Potency (functional potency as indicated by IC50)
T1 construct: host or cells: cells expressing the human H3 receptor
T1 sequence (Q9Y5N1 whole entry): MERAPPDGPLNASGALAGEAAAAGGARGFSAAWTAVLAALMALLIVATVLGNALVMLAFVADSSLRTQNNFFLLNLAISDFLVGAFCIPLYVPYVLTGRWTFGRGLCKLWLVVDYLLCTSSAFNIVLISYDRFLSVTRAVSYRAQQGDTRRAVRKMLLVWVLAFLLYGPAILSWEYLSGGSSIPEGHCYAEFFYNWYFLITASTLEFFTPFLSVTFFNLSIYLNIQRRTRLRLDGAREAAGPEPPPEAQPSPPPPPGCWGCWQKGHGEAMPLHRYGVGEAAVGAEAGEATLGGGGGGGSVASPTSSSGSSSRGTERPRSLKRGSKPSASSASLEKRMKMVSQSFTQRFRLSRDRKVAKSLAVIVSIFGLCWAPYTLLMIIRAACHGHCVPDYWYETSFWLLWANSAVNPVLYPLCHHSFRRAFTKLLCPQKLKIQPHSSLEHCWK
Description: H3 GTPγS assay (SPA method) was performed at EuroScreen (Belgium, ES-392-C) using conventional methods. Briefly, cells expressing the human histamine H3 receptor were homogenized in 15 mM Tris-HCl pH 7.5, 2 mM MgCl2, 0.3 mM EDTA, and 1 mM EGTA. Membranes were washed twice in the above tris buffer, collected by centrifugation (40,000×g, 25 min), and re-suspended in 75 mM Tris-HCl pH 7.5, 12.5 mM MgCl2, 0.3 mM EDTA, 1 mM EGTA, and 250 mM sucrose. Membranes were frozen in liquid nitrogen until use. On the day of the assay, membranes were thawed and diluted in assay buffer (20 mM HEPES pH 7.4, 100 mM NaCl, 10 μg/ml saponin, 1 mM MgCl2) to give 500 μg/ml and mixed (v/v) with GDP in assay buffer for a final GDP concentration of 10 μM and incubated on ice for at least 15 min. PVT-WGA beads (Amersham, RPNQ001) were diluted in assay buffer at 50 mg/mL and mixed with GTPγ[^35S] (Amersham, SJ1308) diluted in assay buffer to give ˜25,000 dpm/10 μL, and mixed vol/vol just before the start of the reaction. The reaction was started by adding 50 μL of test compound, 20 μL of the membranes:GDP mix, 10 μL of buffer, and 20 μL of the GTPγ[^35S]:beads mix in a 96 well plate Optiplate™ (PerkinElmer, 6005299) covered with topseal (TopCount™, PerkinElmer), mixed with an orbital shaker for 2 min, incubated for 1 hour at room temperature, centrifuged for 10 min at 2000 rpm, incubated for 1 h at room temperature, and counted for 1 min in a TopCount™ reader (PerkinElmer). Dose response curves and IC50 values (concentration to inhibit the reaction by 50%) were calculated by nonlinear regression using XLfit software (IDBS).
For antagonists testing, 10 μL of a reference agonist (R-γ-Me-Histamine) instead of 10 μL buffer was added at a concentration corresponding to the EC80 (30 nM). Control ligands were R-γ-Me-Histamine (Tocris, 0569), Imetit (Sigma, I-135), Thioperamide (Tocris, 0644), and Clobenpropit (Tocris, 0754) diluted in assay buffer.
The compounds provided herein were tested in the histamine H3 in vitro assay. In one embodiment, the respective HCl salts of the compounds provided herein were prepared using standard chemical procedures and tested in the histamine H3 in vitro assay.

[2] = In vivo rat PK, brain exposures; conditions: adult male rats, oral gavage in water; for concentration at 1 hr: 1 hr after dosing, read-out: Compound Concentration (ng/g rat brain) 1 hr; for concentration at 24 hr: 24 hr after dosing, read-out: Compound Concentration (ng/g rat brain) 24 hr
Description: In vivo rat PK studies were performed using certain compounds provided herein. In one embodiment, a compound was dissolved in water and was administered to adult male rats (n=3 per time point) by oral gavage at a dose of 3 to 10 mg/kg. The plasma samples were collected and brain tissues were harvested at various time points after dosing, e.g., 15 min, 30 min, 1 hr, 2 hr, and 24 hr after dosing. The PK samples were analyzed; and the compound concentrations in these samples were quantified by LC/MS. The pKa values of the R^6 moiety of the compounds were calculated using ACD Lab (Version 12.01).

Row | Structure (SMILES) | IC50 [1] [µM] | also measured
1 | Cn1ncc2ccc(-c3ccc4c(c3)CC3(CCN(C5CCC5)CC3)O4)cc21 [Compound 65, 1′-Cyclobutyl-5-(1-methyl-1H-indazol-6-yl)-3H-spiro[benzofuran-2,4′-piperidine]] | ≤ 0.01 | 
2 | Cn1cc2ccc(-c3ccc4c(c3)CC3(CCN(C5CCC5)CC3)O4)cc2n1 [Compound 66, 1′-Cyclobutyl-5-(2-methyl-2H-indazol-6-yl)-3H-spiro[benzofuran-2,4′-piperidine]] | ≤ 0.01 | 
3 | N#Cc1ccc(-c2ccc3c(c2)CC2(CCN4CCCCC4C2)O3)cc1 (stereo not drawn) [Compound 74, 4-(-1′,3′,4′,6′,7′,8′,9′,9a′-Octahydro-3H-spiro[benzofuran-2,2′-quinolizin]-5-yl)benzonitrile] | ≤ 0.01 | 
4 | N#Cc1ccc(-c2ccc3c(c2)CC2(CCN4CCCCC4C2)O3)cc1 (stereo not drawn) [Compound 75, 4-(-1′,3′,4′,6′,7′,8′,9′,9a′-Octahydro-3H-spiro[benzofuran-2,2′-quinolizin]-5-yl)benzonitrile] | ≤ 0.01 | 
5 | c1cn2cc(-c3ccc4c(c3)CC3(CCN5CCCCC5C3)O4)ccc2n1 (stereo not drawn) [Compound 76, 5-(Imidazo[1,2-a]pyridin-6-yl)-1′,3′,4′,6′,7′,8′,9′,9a′-octahydro-3H-spiro[benzofuran-2,2′-quinolizine]] | ≤ 0.01 | 
6 | c1cn2cc(-c3ccc4c(c3)CC3(CCN5CCCCC5C3)O4)ccc2n1 (stereo not drawn) [Compound 77, 5-(Imidazo[1,2-a]pyridin-6-yl)-1′,3′,4′,6′,7′,8′,9′,9a′-octahydro-3H-spiro[benzofuran-2,2′-quinolizine]] | ≤ 0.01 | 
7 | c1cc2c(cc1CN1CCOCC1)CC1(CCN3CCCCC3C1)O2 (stereo not drawn) [Compound 78, 5-(Morpholinomethyl)-1′,3′,4′,6′,7′,8′,9′,9a′-octahydro-3H-spiro[benzofuran-2,2′-quinolizine]] | ≤ 0.01 | 
8 | c1cc2c(cc1CN1CCOCC1)CC1(CCN3CCCCC3C1)O2 (stereo not drawn) [Compound 79, 5-(Morpholinomethyl)-1′,3′,4′,6′,7′,8′,9′,9a′-octahydro-3H-spiro[benzofuran-2,2′-quinolizine]] | ≤ 0.01 | 
9 | c1ccc2c(c1)CCN(Cc1ccc3c(c1)CC1(CCN4CCCCC4C1)O3)C2 (stereo not drawn) [Compound 80, 5-((3,4-Dihydroisoquinolin-2(1H)-yl)methyl)-1′,3′,4′,6′,7′,8′,9′,9a′-octahydro-3H-spiro[benzofuran-2,2′-quinolizine]] | ≤ 0.01 | 
10 | c1ccc2c(c1)CCN(Cc1ccc3c(c1)CC1(CCN4CCCCC4C1)O3)C2 (stereo not drawn) [Compound 81, 5-((3,4-Dihydroisoquinolin-2(1H)-yl)methyl)-1′,3′,4′,6′,7′,8′,9′,9a′-octahydro-3H-spiro[benzofuran-2,2′-quinolizine]] | ≤ 0.01 | 
11 | c1cn2cc(-c3ccc4c(c3)CC3(CCCN5CCCCC5C3)O4)ccc2n1 (stereo not drawn) [Compound 84, 5-(imidazo[1,2-a]pyridin-6-yl)-2′,3′,4′,6′,7′,8′,10′,10a′-octahydro-1′H,3H-spiro[benzofuran-2,9′-pyrido[1,2-a]azepine]] | ≤ 0.1 | 
12 | N#Cc1ccc(-c2ccc3c(c2)CC2(CCCN4CCCCC4C2)O3)cc1 (stereo not drawn) [Compound 86, 4-(2′,3′,4′,6′,7′,8′,10′,10a′-octahydro-1′H,3H-spiro[benzofuran-2,9′-pyrido[1,2-a]azepin]-5-yl)benzonitrile] | ≤ 0.01 | 
13 | Brc1ccc2c(c1)CC1(CCN3CCCC3C1)O2 (stereo not drawn) [Compound 89, 5-Bromo-2′,3′,5′,6′,8′,8a′-hexahydro-1′H,3H-spiro[benzofuran-2,7′-indolizine]] | ≤ 0.1 | 
14 | N#Cc1ccc(-c2ccc3c(c2)CC2(CCN4CCCC4C2)O3)cc1 (stereo not drawn) [Compound 90, 4-(2′,3′,5′,6′,8′,8a′-Hexahydro-1′H,3H-spiro[benzofuran-2,7′-indolizin]-5-yl)benzonitrile] | ≤ 0.01 | 
15 | c1cn2cc(-c3ccc4c(c3)CC3(CCN5CCCC5C3)O4)ccc2n1 (stereo not drawn) [Compound 91, 5-(Imidazo[1,2-a]pyridin-6-yl)-2′,3′,5′,6′,8′,8a′-hexahydro-1′H,3H-spiro[benzofuran-2,7′-indolizine]] | ≤ 0.01 | 
16 | c1cc2c(cc1CN1CCOCC1)CC1(CCN3CCCC3C1)O2 (stereo not drawn) [Compound 92, 5-(Morpholinomethyl)-2′,3′,5′,6′,8′,8a′-hexahydro-1′H,3H-spiro[benzofuran-2,7′-indolizine]] | ≤ 0.01 | 
17 | c1ccc2c(c1)CCN(Cc1ccc3c(c1)CC1(CCN4CCCC4C1)O3)C2 (stereo not drawn) [Compound 93] | ≤ 0.01 | 

More lines, main results first:

Row | IC50 [1] [µM] | Structure (SMILES) | also measured
18 | ≤ 0.01 | N#Cc1ccc(-c2ccc3c(c2)CC2(CCN(C4CCC4)CC2)O3)cc1 [Compound 5, 4-(1′-Cyclobutyl-3H-spiro[benzofuran-2,4′-piperidine]-5-yl)benzonitrile] | concentration at 1 hr ([2]; 5 mg/kg): 3100 ng/g; concentration at 24 hr ([2]; 5 mg/kg): 400 ng/g
19 | ≤ 0.01 | c1cn2cc(-c3ccc4c(c3)CC3(CCN(C5CCC5)CC3)O4)ccc2n1 [Compound 30, 1′-Cyclobutyl-5-(imidazo[1,2-a]pyridin-6-yl)-3H-spiro[benzofuran-2,4′-piperidine]] | concentration at 1 hr ([2]; 10 mg/kg): 5200 ng/g; concentration at 24 hr ([2]; 10 mg/kg): 250 ng/g
20 | ≤ 0.01 | c1cc2c(cc1CN1CCOCC1)CC1(CCN(C3CCC3)CC1)O2 [Compound 40, 1′-Cyclobutyl-5-(morpholinomethyl)-3H-spiro[benzofuran-2,4′-piperidine]] | concentration at 1 hr ([2]; 3 mg/kg): 900 ng/g; concentration at 24 hr ([2]; 3 mg/kg): 140 ng/g
21 | ≤ 0.01 | c1cc2c(cc1CN1CCCC1)CC1(CCN(C3CCC3)CC1)O2 [Compound 41, 1′-Cyclobutyl-5-(pyrrolidin-1-ylmethyl)-3H-spiro[benzofuran-2,4′-piperidine]] | concentration at 1 hr ([2]; 3 mg/kg): < 25 ng/g; concentration at 24 hr ([2]; 3 mg/kg): 450 ng/g
22 | ≤ 1 | Clc1ccc2c(c1)OC1(CCCN(C3CCC3)CC1)C2 (stereo not drawn) [Compound 67, 6′-Chloro-1-cyclobutyl-3′H-spiro[azepane-4,2′-benzofuran]] | 
23 | ≤ 0.1 | N#Cc1ccc(-c2ccc3c(c2)OC2(CCCN(C4CCC4)CC2)C3)cc1 (stereo not drawn) [Compound 68, 4-(1-Cyclobutyl-3′H-spiro[azepane-4,2′-benzofuran]-6′-yl)benzonitrile] | 
24 | ≤ 0.1 | c1cn2cc(-c3ccc4c(c3)OC3(CCCN(C5CCC5)CC3)C4)ccc2n1 (stereo not drawn) [Compound 69, 1-Cyclobutyl-6′-(imidazo[1,2-a]pyridin-6-yl)-3′H-spiro[azepane-4,2′-benzofuran]] | 
25 | ≤ 0.01 | c1ccc2c(c1)ncn2-c1ccc2c(c1)OC1(CCCN(C3CCC3)CC1)C2 (stereo not drawn) [Compound 70, 6′-(1H-Benzo[d]imidazol-1-yl)-1-cyclobutyl-3′H-spiro[azepane-4,2′-benzofuran]] | 
26 | ≤ 0.1 | c1cc2c(cc1N1CCCCC1)OC1(CCCN(C3CCC3)CC1)C2 (stereo not drawn) [Compound 71, 1-Cyclobutyl-6′-(piperidin-1-yl)-3′H-spiro[azepane-4,2′-benzofuran]] | 
27 | ≤ 0.1 | c1cn2cc(-c3ccc4c(c3)CC3(CCC5CCCCN5CC3)O4)ccc2n1 (stereo not drawn) [Compound 83, 5-(Imidazo[1,2-a]pyridin-6-yl)-2′,3′,4′,6′,7′,9′,10′,10a′-octahydro-1′H,3H-spiro[benzofuran-2,8′-pyrido[1,2-a]azepine]] | 
28 | ≤ 0.01 | N#Cc1ccc(-c2ccc3c(c2)CC2(CCC4CCCCN4CC2)O3)cc1 (stereo not drawn) [Compound 85, 4-(2′,3′,4′,6′,7′,9′,10′,10a′-Octahydro-1′H,3H-spiro[benzofuran-2,8′-pyrido[1,2-a]azepin]-5-yl)benzonitrile] | 
